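Values below derive from 48-hour exposures of cells grown in 96-well plates, with endpoints linearly interpolated between the two concentrations bracketing the appropriate inhibition level. TGI: concentration producing complete growth inhibition.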
How the values were obtained:
Experiment in all cases: NCI-60 cell line screen, 48 h
SNB-78 CNS = system: SNB-78 CNS
UACC-257 melanoma = system: UACC-257 melanoma
M19-MEL melanoma = system: M19-MEL melanoma
IGROV1 ovarian = system: IGROV1 ovarian
SF-268 CNS = system: SF-268 CNS
RXF 393 renal = system: RXF 393 renal
COLO 205 colon = system: COLO 205 colon
LOX IMVI melanoma = system: LOX IMVI melanoma
SF-539 CNS = system: SF-539 CNS
OVCAR-3 ovarian = system: OVCAR-3 ovarian
A549 NSCLC = system: A549 NSCLC
UO-31 renal = system: UO-31 renal
DLD-1 colon = system: DLD-1 colon
XF 498 CNS = system: XF 498 CNS
NCI-H23 lung = system: NCI-H23 lung
HCT-15 colon = system: HCT-15 colon
SNB-19 CNS = system: SNB-19 CNS
SK-MEL-5 melanoma = system: SK-MEL-5 melanoma
CAKI-1 renal = system: CAKI-1 renal
DMS 114 small cell lung = system: DMS 114 small cell lung
KM12 colon = system: KM12 colon
SK-MEL-28 melanoma = system: SK-MEL-28 melanoma
HCT-116 colon = system: HCT-116 colon
ACHN renal = system: ACHN renal
OVCAR-8 ovarian = system: OVCAR-8 ovarian
HCC-2998 colon = system: HCC-2998 colon
NCI-H226 lung = system: NCI-H226 lung
OVCAR-4 ovarian = system: OVCAR-4 ovarian
KM20L2 colon = system: KM20L2 colon
SW-620 colon = system: SW-620 colon
TK-10 renal = system: TK-10 renal
SNB-75 CNS = system: SNB-75 CNS
SN12C renal = system: SN12C renal
OVCAR-5 ovarian = system: OVCAR-5 ovarian
HOP-62 NSCLC = system: HOP-62 NSCLC
U251 CNS = system: U251 CNS
MALME-3M melanoma = system: MALME-3M melanoma
UACC-62 melanoma = system: UACC-62 melanoma
NCI-H522 lung = system: NCI-H522 lung
SF-295 CNS = system: SF-295 CNS
SK-OV-3 ovarian = system: SK-OV-3 ovarian
HOP-92 NSCLC = system: HOP-92 NSCLC
786-0 renal = system: 786-0 renal
SR leukemia = system: SR leukemia
M14 melanoma = system: M14 melanoma
NCI-H460 lung = system: NCI-H460 lung
DMS 273 small cell lung = system: DMS 273 small cell lung
RPMI-8226 leukemia = system: RPMI-8226 leukemia
HT29 colon = system: HT29 colon

Work on `CC(c1ccccc1)N1O[C@]12CC[C@@]1(C)C(CCCC13OCCO3)C2` (some centres undefined) yielded a TGI (SNB-78 CNS) of 40.9 µM, a TGI (UACC-257 melanoma) of 43.4 µM and a TGI (M19-MEL melanoma) of 51 µM. For the same compound, the TGI (IGROV1 ovarian) was 12.1 µM, the TGI (SF-268 CNS) was over 100 µM and the TGI (RXF 393 renal) was 54.5 µM. It also gave a TGI (COLO 205 colon) of 32.5 µM, a TGI (LOX IMVI melanoma) of 26.2 µM and a TGI (SF-539 CNS) of over 100 µM. The TGI (OVCAR-3 ovarian) was 34.4 µM, the TGI (A549 NSCLC) was 43 µM and the TGI (UO-31 renal) was 31.9 µM. It also gave a TGI (DLD-1 colon) of 32.7 µM, a TGI (XF 498 CNS) of 44.3 µM and a TGI (NCI-H23 lung) of over 100 µM. For the same compound, the TGI (HCT-15 colon) was 46.2 µM, the TGI (SNB-19 CNS) was over 100 µM and the TGI (SK-MEL-5 melanoma) was 93.1 µM. It also gave a TGI (CAKI-1 renal) of 37.2 µM, a TGI (DMS 114 small cell lung) of 27.4 µM and a TGI (KM12 colon) of 43.2 µM. It also gave a TGI (SK-MEL-28 melanoma) of over 100 µM, a TGI (HCT-116 colon) of 29.6 µM and a TGI (ACHN renal) of 30.3 µM. It also gave a TGI (OVCAR-8 ovarian) of 37.2 µM, a TGI (HCC-2998 colon) of over 100 µM and a TGI (NCI-H226 lung) of over 100 µM. It also gave a TGI (OVCAR-4 ovarian) of 33.2 µM, a TGI (KM20L2 colon) of over 100 µM and a TGI (SW-620 colon) of 34.4 µM. It also gave a TGI (TK-10 renal) of 32.2 µM, a TGI (SNB-75 CNS) of 39 µM and a TGI (SN12C renal) of 75.6 µM. It also gave a TGI (OVCAR-5 ovarian) of over 100 µM, a TGI (HOP-62 NSCLC) of over 100 µM and a TGI (U251 CNS) of 37.6 µM. It also gave a TGI (MALME-3M melanoma) of 83.9 µM, a TGI (UACC-62 melanoma) of 35.4 µM and a TGI (NCI-H522 lung) of 32 µM. The TGI (SF-295 CNS) was 44.3 µM, the TGI (SK-OV-3 ovarian) was over 100 µM and the TGI (HOP-92 NSCLC) was 23.7 µM. For the same compound, the TGI (786-0 renal) was 36.5 µM, the TGI (SR leukemia) was 40.4 µM and the TGI (M14 melanoma) was 32.1 µM. For the same compound, the TGI (NCI-H460 lung) was 38.1 µM, the TGI (DMS 273 small cell lung) was 36 µM and the TGI (RPMI-8226 leukemia) was over 100 µM. For the same compound, the TGI (HT29 colon) was 44.3 µM.
